Test results reported in US20040097566A1, “2-Substituted thiazolidinone and oxazolidinone derivatives for the inhibition of phosphatases and the treatment of cancer” (priority 2001, published 2004).
“Also recorded” adds a separate entry of the source.

Key:
[1] = target: T1, recombinant human enzyme Cdc25A (Homo sapiens, UniProt P30304); assay: Cdc25A phosphatase assay (OMFP substrate), inhibition of Cdc25A; type: biochemical; settings: FIG. 1; inhibition calculated as a percentage of the solvent control
T1 construct: purchased Upstate Biotechnology (Lake Placid, N.Y.)
T1 sequence (P30304 1-524): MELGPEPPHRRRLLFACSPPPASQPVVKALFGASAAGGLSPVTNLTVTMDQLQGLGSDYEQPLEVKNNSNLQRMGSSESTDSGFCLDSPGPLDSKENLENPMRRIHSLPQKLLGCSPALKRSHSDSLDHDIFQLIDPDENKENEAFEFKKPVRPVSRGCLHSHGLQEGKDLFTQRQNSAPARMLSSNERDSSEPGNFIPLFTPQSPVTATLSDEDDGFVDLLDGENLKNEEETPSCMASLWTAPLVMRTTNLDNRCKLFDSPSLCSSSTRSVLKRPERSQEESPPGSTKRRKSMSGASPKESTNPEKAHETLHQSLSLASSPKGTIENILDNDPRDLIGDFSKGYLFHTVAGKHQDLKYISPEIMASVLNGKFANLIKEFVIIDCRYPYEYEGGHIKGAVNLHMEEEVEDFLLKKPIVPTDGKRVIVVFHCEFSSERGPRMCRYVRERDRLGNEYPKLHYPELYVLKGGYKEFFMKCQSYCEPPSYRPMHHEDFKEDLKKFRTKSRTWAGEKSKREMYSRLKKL
Protocol: Therefore, one method of […] screening of the compounds for anti-cancer activity is to test the activity of a particular compound for the ability to inhibit Cdc 25-type phosphatases. The results of one such test are shown in Example 161 below, and FIG. 1.
The phosphatase assay was performed in a 96-well microtiter plate using recombinant human enzyme Cdc25A purchased from Upstate Biotechnology (Lake Placid, N.Y.). Stock solutions of the test compounds were prepared in DMSO. Five μl of suitable dilutions of the compounds were added to the assay. The final volume of the assay was 100 μl. Twenty units of Cdc25A were pre-incubated with the test compounds at 37° C. for 10 min in the reaction mixture containing 100 mM Tris-HCl, pH 8.2, 40 mM NaCl, 1 mM DTT and 20% glycerol. The reaction was initiated by addition of the enzyme substrate […] (OMFP; Sigma, St. Louis, Mo.) at a final concentration of 40 μM and incubated at room temperature for 1 hour. This substrate allows fluorometric determination of enzyme activity. OMFP is readily metabolized to the fluorescent O-methylfluorescein by the enzyme Cdc25A, thus the absorbance of each reaction sample was determined at 477 nm using a plate reader (SpectraMax 340, Molecular Devices, Sunnyvale, Calif.). […] Inhibition of Cdc25A activity by test compounds was calculated as a percentage of the solvent control.

[2] = system: breast cancer cell line MDA-MB468; assay: MTT assay, human breast cancer cells; type: cell-based; settings: concentrations in the range of 10^−7-10^−5 M or higher, FIGS. 2, 17
Excerpt: (§1) The anti-cancer activity of some of the compounds described herein have been tested in one type of such in vitro assay, as described in the examples herein, using a microculture assay with 3-(4,5-dimethylthiazol-2-yl)-2,5-diphenyltetrazolium bromide (“MTT”). This assay has an advantage over in vivo assay in that results are obtained within a week as opposed to several months. The assay can be carried out in 96-well microtiter plates. The MTT assay is based on the production of a dark blue formazan product by dehydrogenase in the mitochondria of live tumor cells after exposure to drug for 6 days [M. C. Alley, D. A. Scudiero, A. Monks, M. L. Hursey, M. J. Czerwinski, D. L. Fine, B. J. Abbout, J. G. Mayo, R. H. Shoemaker and M. R. Boyd, Cancer Res., 48, 589, 1988]. Thus, only live cells are stained and can be measured at 595 nm. Anti-cancer activity can be reported as percent of the tumor cell growth in the presence of compound at a defined dose compared to control/vehicle treated tumor cells. The results of some such screening assays are given in Examples 162a and 162b, and in FIGS. 2, 3, and 15-18.
(§2) The following human cancer cell lines were used to detect anti-cancer activity in the compounds of the invention.
The breast cancer cell line MDA-MB468 served to detect anti-breast cancer activity.
(§3) Cell lines were purchased from American Type Culture Collection (ATCC).
(§4) The cancer cell cultures were grown as recommended by the ATTC manuals. A549 cells and BX-PC-3 were grown in DME Dulbecco's modified Eagle's medium containing 4500 mg/L glucose; 4 mM L-glutamine; 10 U/ml Pen-G; 10 mcg/ml […] and 10% fetal calf serum (FCS). PC-3 and MDA-MB468 cells were grown in RPMI medium 1640 containing 2 mM L-glutamine; 10 U/ml Pen-G; 10 mcg/ml Streptomycin and 10% FCS. Cells were kept at 6% CO2 and 37° C. Cells were seeded on day zero in 96-well format tissue culture plates at suitable densities the day before starting treatment, in the media indicated above.
(§5) On day one, the compounds of the invention were added to the culture media of growing cells, containing 10% FCS. The cell media contained the compounds of the invention at one of six concentrations: […], 5×10^−8, 1×10^−7, 5×10^−7, 1×10^−6, and 1×10^−5M. 0.1% DMSO was used as vehicle control, and never exceeded 0.1% final concentration. On day four the media was removed and replaced with fresh media containing the compounds of the invention and FCS.
(§6) The assay is based on the cleavage of the yellow tetrazolium salt MTT to purple formazan crystals by dehydrogenase activity in active mitochondria. This conversion only occurs in living cells with intact/functional mitochondria.
(§7) On day five 10 μl of 5 mg/ml MTT dye are added to each well containing a cell culture. Cells are incubated for additional 4 hours at 6% CO2 and 37° C. Reaction is then stopped by adding 100 μl/well of a solubilization solution consisting of 10% Sodium Dodecyl Sulfate (SDS) and 10 mM HCl On day 6 the formazan crystals formed are solubilized and the resulting colored solution is quantified using a scanning multiwell spectrophotometer at a wavelength of 595 nm.

[3] = system: prostate cancer cell line PC-3; assay: MTT assay, human prostate cancer cells; type: cell-based; settings: concentrations in the range of 10^−7-10^−5 M or higher, FIGS. 2, 16
Excerpt: as §1, §2
The prostate cancer cell line PC-3 was used to detect […]
as §3, §4, §5, §6, §7

[4] = system: non-small-cell lung cancer cell line A549; assay: MTT assay, human non-small-cell lung cancer cells; type: cell-based; settings: concentrations in the range of 10^−7-10^−5 M or higher, FIGS. 3, 15
Excerpt: as §1, §2
The non-small-cell lung cancer cell line A549 was used to detect anti-lung cancer activity
as §3, §4, §5, §6, §7

[5] = system: pancreatic cancer cell line BX-PC-3; assay: MTT assay, human pancreatic cancer cells; type: cell-based; settings: concentrations in the range of 10^−7-10^−5 M or higher, FIGS. 3, 18
Excerpt: as §1, §2
The pancreatic cancer cell line BX-PC-3 was used to detect anti-pancreatic cancer activity.
as §3, §4, §5, §6, §7

- selective inhibition of Cdc25 as compared to the dual specificity phosphatase MKP-1 [1]: selective inhibition of Cdc25
- melting point: 311 to 312 °C
Compound: O=C1N=C(N2CCCCC2)S/C1=C\c1cccc(-c2ccc(O)c(C34CC5CC(CC(C5)C3)C4)c2)c1 [Compound 3, 5-[3-(3-Adamantan-1-yl-4-hydroxy-phenyl)benzylidene]-2-piperidin-1-yl-thiazol-4-one]
- anticancer cell activity / killing of breast cancer cells [2]: kill significant percentages of the cells; also recorded: strong anticancer cell activity
- anticancer cell activity / killing of prostate cancer cells [3]: kill significant percentages of the cells; also recorded: strong anticancer cell activity
- anticancer cell activity / killing of non-small-cell lung cancer cells [4]: kill significant percentages of the cells; also recorded: strong anticancer all activity
- anticancer cell activity / killing of pancreatic cancer cells [5]: kill significant percentages of the cells; also recorded: strong anticancer all activity
